Measured values taken from patent US7786117B2, “Therapeutic substituted thiazolidinones, oxazolidinones, and related compounds” (Allergan, Inc., priority 2008, dated 2010).

System: lashes and adjacent hairs of the eyelids
Assay: Observation of lash and hair growth in glaucoma patients treated with bimatoprost in only one eye
Type: in vivo, human
Text: In the course of treating patients having glaucoma, treatment may only be appropriate in one eye. […] The lash appearance on the lids of the treated eyes would have appeared quite attractive if it represented a bilateral phenomenon. As a result of its asymmetric nature, the long lashes on one side could be construed as disturbing from a cosmetic standpoint. A systemic examination was preformed as a result of the asymmetric phenomenon. It soon became apparent that this altered appearance was not an isolated finding.
The changes in the lashes were apparent on gross inspection in several patients once attention was focused on the issue. In those with light colored hair and lashes, the differences were only seen easily with the aid of the high magnification and lighting capabilities of the slit lamp biomicroscope. In the course of glaucoma follow-up examination, attention is generally immediately focused on the eye itself. As a result of the high power magnification needed only one eye is seen at a time and the eye is seen at a high enough power that the lashes are not in focus. At these higher powers, any lash asymmetry between the two eyes is not likely to be noticed except by careful systematic comparison of the lashes and adjacent hairs of the eyelids of the two eyes.
Observed parameters leading to the conclusion that more robust hair growth occurred in the treatment area following administration of the prostaglandin analogue were multiple. They included increased length of lashed, increased number of lashes along the normal lash line, increased thickness and luster of lashes, increased auxiliary lash-like terminal hair in transitional areas adjacent to areas of normal lash growth, increased auxiliary lash-like terminal hairs at the medial and lateral canthal area, increased pigmentation of the lashes, increased numbers, increased length, as well as increased luster, and thickness of fine hair on the skin of the adjacent lid, and finally, increased perpendicular angulation of lashes and lash-like terminal hairs.

Compound: CCNC(=O)CCC/C=C\C[C@@H]1[C@@H](/C=C/[C@@H](O)CCc2ccccc2)[C@H](O)C[C@@H]1O [bimatoprost]
- lash appearance in the treated eye versus the non-treated eye (a glaucoma patient treated in one eye only): longer, thicker, and fuller in the treated eye than in the non-treated eye
- differences in the lashes and adjacent hairs of the treated side (all patients taking the drug on a unilateral basis for longer than 6 months): Definite differences could be identified to varying degrees
- hair growth in treated versus control areas, multiple parameters of hair appearance (many subjects, length, number, thickness, luster, pigmentation, angulation of lashes): hair growth is stimulated
